Measurements taken from patent US11583507B2, “Direct AMPK activator compounds” (SOCIETE DES PRODUITS NESTLE S.A., priority 2018, dated 2023).

Assays:
[1] = test system: C2C12 AMPKα1α2+/+ cells; assay: Glucose uptake (3H-2-deoxyglucose) in differentiated C2C12 AMPKα1α2+/+ cells; assay type: cell-based, murine
Source text: C2C12 AMPK α1α2 double knockout cell lines were generated by transient transfection of wild type cells with plasmids containing Cas9 enzyme linked to green fluorescent protein expression and Cas9 guide RNA sequences targeting the murine AMPK α1 subunit (sc-430618, SantaCruz) and the murine AMPK α2 subunit (sc-430803, SantaCruz). Cells positive for green fluorescent protein expression were single cell sorted by flow cytometry into 96-well plates containing growth medium and analysed for loss of AMPK signaling following expansion of the clones.
Differentiated C2C12 AMPKα1α2+/+ and AMPKα1α2−/− cells were treated with either vehicle (0.2% DMSO), 30 μM or 100 μM Lusianthridin for 1 h at 37° C. […] Finally, differentiated C2C12 AMPKα1α2+/+ and AMPKα1α2−/− cells were treated with either vehicle (0.2% DMSO) or 100 μM Lusianthridin in the presence or absence of 15 nM Wortmanin for 1 h at 37° C. For the Wortmanin experiments, differentiated C2C12 cells were pre-incubated with DMSO or Wortmanin for 1 h prior to treatment.
Glucose uptake was determined by monitoring the uptake of 3H-2-deoxyglucose into cells. C2C12 AMPKα1α2+/+ and AMPKα1α2−/− cells were maintained in DMEM GlutaMAX supplemented with 20% (vol/vol) FBS and 100 U/ml penicillin G, and 100 μg/ml streptomycin. […] Cells were lysed and the quantity of ^3H determined in these samples using a scintillation counter.

[2] = test system: AMPK substrate, acetyl-CoA carboxylase (ACC); assay: Western blot of pACC / total ACC in U2OS Flp-In T-REx lysates; assay type: cell-based; details: varying concentrations
Description: U2OS Flp-In T-REx cells were seeded at 100 K in a 96-well plate and left overnight at 37 C in DMEM GlutaMAX (Thermo Fisher Scientific) supplemented with 10% (vol/vol) FBS and 100 U/ml penicillin G, and 100 μg/ml streptomycin. Cells were treated for 1 h with varying concentrations of Lusianthridin in media lacking FBS and then cells were lysed in 50 μl of Cisbio lysis buffer #1 supplemented with blocking solution as per the manufacturer's protocol (Cisbio). Cells were lysed for 30 mins at room temperature before 16 μl of lysate was incubated with 4 μl of the HTRF antibodies (1:40 dilution of the acceptor and donor (p)ACC antibodies, as per the manufacturers protocol). Lysates were incubated overnight with the antibodies before 665 nm/620 nm ratio was determined using a MolecularDevices i3 plate reader (with a HTRF cartridge add-on). For western blot analysis, SDS-sample buffer was added to the remainder of the lysate, denatured at 95 C and then subjected to western blot analysis with phospho-specific and total ACC antibodies (Cell Signalling). Bands were visualized by incubating with Li-Cor secondary antibody and scanned on a Li-Cor Odyssey machine.

[3] = molecular target: T1, AMPK α2β2γ1 (221) (Homo sapiens, UniProt O43741+P54619+P54646); assay: AMPK in vitro activity assay (HTRF-KinEASE), β2-containing complex; assay type: biochemical; details: fold activation vs complex without compound
T1 construct: His; made in house; host or cells: bacteria
T1 sequence (P54646 whole entry): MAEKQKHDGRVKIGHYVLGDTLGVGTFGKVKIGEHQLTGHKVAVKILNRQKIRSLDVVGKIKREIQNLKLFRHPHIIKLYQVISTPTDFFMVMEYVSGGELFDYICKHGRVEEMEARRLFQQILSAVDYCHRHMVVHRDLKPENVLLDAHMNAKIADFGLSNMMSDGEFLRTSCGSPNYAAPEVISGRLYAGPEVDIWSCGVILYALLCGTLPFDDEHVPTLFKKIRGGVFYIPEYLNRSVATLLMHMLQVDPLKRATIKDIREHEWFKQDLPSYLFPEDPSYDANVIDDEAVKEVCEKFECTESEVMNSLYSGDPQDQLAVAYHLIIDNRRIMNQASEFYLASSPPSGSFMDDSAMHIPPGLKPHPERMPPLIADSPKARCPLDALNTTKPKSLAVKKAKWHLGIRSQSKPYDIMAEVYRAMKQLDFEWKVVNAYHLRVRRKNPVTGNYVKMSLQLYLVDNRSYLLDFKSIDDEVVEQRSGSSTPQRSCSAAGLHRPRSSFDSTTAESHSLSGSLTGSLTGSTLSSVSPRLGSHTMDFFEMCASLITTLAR
T1 sequence (O43741 whole entry): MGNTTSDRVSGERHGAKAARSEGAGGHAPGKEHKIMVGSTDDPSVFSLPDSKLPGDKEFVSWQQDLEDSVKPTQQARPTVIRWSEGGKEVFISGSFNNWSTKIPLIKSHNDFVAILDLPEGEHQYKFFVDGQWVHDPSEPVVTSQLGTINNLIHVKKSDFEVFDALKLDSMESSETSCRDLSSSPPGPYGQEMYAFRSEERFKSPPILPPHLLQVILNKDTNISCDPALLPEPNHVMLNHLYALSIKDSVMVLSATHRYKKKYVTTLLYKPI
T1 sequence (P54619 whole entry): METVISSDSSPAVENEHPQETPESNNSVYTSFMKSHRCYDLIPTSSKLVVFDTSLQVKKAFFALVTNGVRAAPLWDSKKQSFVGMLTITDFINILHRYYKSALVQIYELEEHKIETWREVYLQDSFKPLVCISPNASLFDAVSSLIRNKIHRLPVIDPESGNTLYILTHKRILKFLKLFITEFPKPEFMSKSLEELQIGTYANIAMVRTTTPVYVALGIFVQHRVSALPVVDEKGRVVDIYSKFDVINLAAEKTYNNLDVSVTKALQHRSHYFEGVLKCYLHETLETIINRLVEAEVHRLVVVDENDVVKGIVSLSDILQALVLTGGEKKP
Description: Lusianthridin (CAS 87530-30-1) was isolated from Thunia alba fruit. It was sourced from Analyticon (NP-012362). The plant was purchased through Analyticon's biomaterial supplier in 2003. The country of origin is Nepal. The AMPK heterotrimers were expressed in bacteria and purified through the His-α subunit by nickel purification. AMPK complexes were purified through gel filtration and phosphorylated by incubation with CaMKKβ, and further purified with a final gel filtration purification step. Phosphorylated purified AMPK was incubated with varying concentrations of ligand for 30 mins using substrate and reagents from the HTRF-KinEASE Cisbio assay kit (STK S1 Kit). Phosphorylation of the substrate was measured by incubating with donor and acceptor antibodies for 2 h at room temperature as per the manufacturer's protocol (and Coulerie et al., (2016) PMID: 27792327) and phosphorylated peptide detected by performing HTRF. The 665 nm/620 nm ratio was determined and the results are plotted as fold activation compared to the respective AMPK complex without any compound.

SMILES: COc1cc(O)c2c(c1)CCc1cc(O)ccc1-2 [Lusianthridin, 7-Methoxy-9,10-dihydrophenanthrene-2,5-diol]
- glucose uptake (fold change relative to control) ([1]; C2C12 AMPKα1α2+/+, 30 or 100 μM Lusianthridin, 300 nM Insulin, 1 h at 37° C): increase in glucose uptake
- effect of Wortmanin on stimulated glucose uptake ([1]; in the presence of 15 nM Wortmanin (1 h pre-incubation), 100 μM Lusianthridin or 300 nM Insulin, 1 h): no effect
- phosphorylation of ACC by western blot (AMPK activation in cells) [2]: activates AMPK in cells
- activation of β2-containing AMPK complexes (α2β2γ1) [3]: does not activate
